Laboratory results as given in US20250275953A1, “VODOBATINIB FOR REDUCING PROGRESSION OF PARKINSON'S DISEASE” (Sun Pharma Advanced Research Company Ltd., priority 2022, published 2025).
Read-outs that look alike come from different tables or passages of the source.

Experiments:
c-Abl = c-Abl (Homo sapiens, UniProt P00519); test: Competition binding KINOMEscan assay (DiscoverX); conditions: read-out: Kd, Binding Assay hAbl
Experimental: The binding affinity of vodobatinib to c-Abl was determined in a competition binding KINOMETM scan assay. […] Liganded beads were blocked with excess biotin, and washed with blocking buffer (SEA BLOCK Pierce), with 1% BSA, 0.05% Tween 20, 1 mM DTT) to remove unbound ligand and reduce non-specific binding. […] The kinase concentration in the eluates was measured by qPCR. The kinase concentrations in test compound treated wells were compared with that in the non-treated wells across the concentration range to generate the Kd values.

[1] = Plasma pharmacokinetics, 7 once-daily oral doses, healthy volunteers; type: in vivo, human; conditions: for Cmax / Tmax / AUC(0-t): male, human, plasma, oral
Experimental: After 28 days of screening, the subjects were studied in sequential cohorts of 6 subjects each. The study was conducted for 17 days. […] After the dose, subjects continued to fast for additional 4 hours, water was allowed ad libitum with the exception of 1 hour prior and 1-hour post dose.
The plasma and CSF samples were analyzed, by validated LC/MS-MS methods. PK analysis was conducted based on PK/PP Population: Cmax, AUC0-t, AUC0-24, AUC0-∞, Tmax, Cavg, CL/F, Cmin, t1/2, Kel, Vd (V/F; Vd/F), and Vss/F. Model-independent plasma PK parameters (Cmax, Tmax, t1/2, AUC0-t, AUC0-24, AUC0-∞, Cavg, CL/F, Vss/F, Vd/F), after the first dose (Day 1) and last dose (Day 7), Cmin on Days 2-7) was listed by subject and summarized by study cohort. In addition to the descriptive statistics listed above, geometric means was reported for the pivotal PK endpoints (CL/F, Vss/F, Vd/F, Cmin, Cavg, AUC0-t, AUC0-24, AUC0-∞, and Cmax). For CSF, PK parameters (Cmax, Tmax, t1/2, AUC0-t, AUC0-24, Cmin, Cavg, CL/F, Vss/F) was listed by subject and summarized by cohort. Ratios of CSF: plasma concentration at each time point was listed by subject and summarized by study cohort.
Forty-one healthy adult male volunteers aged 18 to 45 with body mass indexes (BMI)≥18 to ≤30 Kg/m^2 and total body weight >50 kg (110 lb) were screened in order to enroll 19 subjects with an average age of 34.2 years (range 21.5-45.6 years) into this study Six participants were randomly assigned to the 48 and 192 mg cohorts, and seven participants were assigned to the 384 mg cohort. After an overnight fast, participants received once daily doses of vodobatinib as capsules for 7 days. Serial PK blood samples to measure vodobatinib plasma concentrations were collected at pre-dose and at 0.25, 0.5, 1, 1.5, 2, 2.5, 3, 4, 6, 8, 12, 16 and 24 h post-dose after the first dose on Day 1 and the last dose on day 7. Additional PK samples prior to the morning doses were taken on Days 3-6. On the morning of Day 7, prior to dosing, an indwelling intrathecal catheter was inserted in the lumbar region (L3-L5). Serial CSF samples were collected through the catheter connected via peristaltic pump to a fraction collector. At each designated CSF collection time point, 8 mL of CSF was collected at a flow rate of 0.5 mL/min over a 16-min period at pre-dose, and 0.5, 1.0, 1.5, 2, 2.5, 3, 4, 6, 8, 12 and 24 h post-dose. The first 2 mL of CSF was discarded, and the remaining 6 mL was used for the vodobatinib assay. The occurrence of treatment-emergent adverse events (TEAEs) and serious AEs (SAEs) reported through the completion of study were collected.

[2] = 48 mg, Day 7, plasma, healthy volunteers
[3] = 192 mg, Day 1, plasma, healthy volunteers
[4] = 192 mg, Day 7, plasma, healthy volunteers
[5] = 384 mg, Day 1, plasma, healthy volunteers
[6] = 384 mg, Day 7, plasma, healthy volunteers

Sequence of c-Abl (P00519 whole entry): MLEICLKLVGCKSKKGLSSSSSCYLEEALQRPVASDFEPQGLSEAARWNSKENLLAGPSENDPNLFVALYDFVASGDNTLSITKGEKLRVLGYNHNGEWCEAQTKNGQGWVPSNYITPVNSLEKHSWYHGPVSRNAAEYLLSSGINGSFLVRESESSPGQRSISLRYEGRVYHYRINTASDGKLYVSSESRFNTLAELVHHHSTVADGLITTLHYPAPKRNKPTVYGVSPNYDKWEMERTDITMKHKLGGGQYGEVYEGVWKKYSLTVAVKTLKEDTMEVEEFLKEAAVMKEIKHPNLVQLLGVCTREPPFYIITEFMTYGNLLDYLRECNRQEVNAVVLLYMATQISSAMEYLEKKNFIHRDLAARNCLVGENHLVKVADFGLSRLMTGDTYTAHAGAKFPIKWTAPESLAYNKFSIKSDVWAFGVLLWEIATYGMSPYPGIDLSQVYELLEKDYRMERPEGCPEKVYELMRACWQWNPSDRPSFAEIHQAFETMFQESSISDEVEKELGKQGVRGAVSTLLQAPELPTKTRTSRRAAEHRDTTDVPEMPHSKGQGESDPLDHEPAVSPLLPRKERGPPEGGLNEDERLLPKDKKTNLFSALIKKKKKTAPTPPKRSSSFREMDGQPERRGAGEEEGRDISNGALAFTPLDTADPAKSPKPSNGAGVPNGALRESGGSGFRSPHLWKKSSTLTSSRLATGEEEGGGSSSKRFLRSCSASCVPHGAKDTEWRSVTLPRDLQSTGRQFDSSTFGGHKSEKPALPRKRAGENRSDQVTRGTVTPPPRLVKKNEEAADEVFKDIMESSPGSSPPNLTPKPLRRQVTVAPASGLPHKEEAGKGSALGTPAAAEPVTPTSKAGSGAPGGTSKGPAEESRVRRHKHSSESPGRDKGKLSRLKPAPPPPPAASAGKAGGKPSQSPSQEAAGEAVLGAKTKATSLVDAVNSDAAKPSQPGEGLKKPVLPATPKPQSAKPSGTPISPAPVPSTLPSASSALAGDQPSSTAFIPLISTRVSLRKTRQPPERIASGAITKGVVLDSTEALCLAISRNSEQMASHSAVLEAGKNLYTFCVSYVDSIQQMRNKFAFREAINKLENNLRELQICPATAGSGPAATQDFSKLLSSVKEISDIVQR

SMILES: Cc1ccc(C(=O)NNC(=O)c2c(C)cccc2Cl)cc1C#Cc1cnc2ccccc2c1 [N′-(2-chloro-6-methylbenzoyl)-4-methyl-3-[2-(3-quinolyl)ethynyl]-benzohydrazide]
- Kd (c-Abl): 0.98 nM
- AUC0-24 GM ([1]; 48 mg, Day 1, plasma, healthy volunteers): 8691.6 ng·h/mL
- AUC0-24 GM [1, 2]: 10346.9 ng·h/mL
- Cmax GM [1, 2]: 1241.4 ng/mL
- AUC0-24 GM [1, 3]: 33425.8 ng·h/mL
- Cmax GM [1, 3]: 3550.7 ng/mL
- AUC0-24 GM [1, 4]: 39138.2 ng·h/mL
- Cmax GM [1, 4]: 5020.9 ng/mL
- AUC0-24 GM [1, 5]: 35536.5 ng·h/mL
- Cmax GM [1, 5]: 5387.1 ng/mL
- AUC0-24 GM [1, 6]: 42124.5 ng·h/mL
- Cmax GM [1, 6]: 6648.7 ng/mL
- time within which peak plasma concentrations (Cmax) achieved ([1]; Day 1, across 48-384 mg cohorts): 2.8 to 4.0 h
- Cmax ([1]; 48 mg, Day 1, plasma, Healthy Subjects, Table 10, read-out: Cmax Mean): 1380 ng/mL
- Tmax ([1]; 48 mg, Day 1, plasma, Healthy Subjects, Table 10, read-out: Tmax median): 2.8 h
- AUC(0-t) ([1]; 48 mg, Day 1, plasma, Healthy Subjects, read-out: AUC0-24 Mean): 8870 ng·h/mL
- AUC(0-t) ([1]; 48 mg, Day 1, plasma, healthy volunteers, read-out: AUC0-24 AM): 8870 ng·h/mL
- AUC(0-t) ([1]; 48 mg, Day 1, plasma, healthy volunteers, read-out: AUC0-24 GM): 8690 ng·h/mL
- AUC(0-t) ([1]; 48 mg, Day 1, plasma, healthy volunteers, read-out: AUC0-24 Median): 8880 ng·h/mL
- AUC(0-t) ([1]; 48 mg, Day 1, plasma, healthy volunteers, read-out: AUC0-24 Min, Max): 5850 to 10800 ng·h/mL
- Cmax ([1]; 48 mg, Day 1, plasma, healthy volunteers, read-out: Cmax AM): 1380 ng/mL
- Cmax ([1]; 48 mg, Day 1, plasma, healthy volunteers, read-out: Cmax GM): 1330 ng/mL
- Cmax ([1]; 48 mg, Day 1, plasma, healthy volunteers, read-out: Cmax Median): 1220 ng/mL
- Cmax ([1]; 48 mg, Day 1, plasma, healthy volunteers, read-out: Cmax Min, Max): 1010 to 2000 ng/mL
- Tmax ([1]; 48 mg, Day 1, plasma, healthy volunteers, read-out: Tmax Median): 2.8 h
- Tmax ([1]; 48 mg, Day 1, plasma, healthy volunteers, read-out: Tmax Min, Max): 1.5 to 4 h
- Cmax ([1]; 48 mg, Day 7, plasma, Healthy Subjects, Table 10, read-out: Cmax Mean): 1400 ng/mL
- Tmax ([1]; 48 mg, Day 7, plasma, Healthy Subjects, Table 10, read-out: Tmax median (range)): 4 h
- AUC(0-t) ([1]; 48 mg, Day 7, plasma, Healthy Subjects, read-out: AUC0-24 Mean): 12900 ng·h/mL
- AUC(0-t) ([1]; 48 mg, Day 7, plasma, healthy volunteers, read-out: AUC0-24 AM): 12900 ng·h/mL
- AUC(0-t) ([1]; 48 mg, Day 7, plasma, healthy volunteers, read-out: AUC0-24 GM): 10300 ng·h/mL
- AUC(0-t) ([1]; 48 mg, Day 7, plasma, healthy volunteers, read-out: AUC0-24 Median): 11000 ng·h/mL
- AUC(0-t) ([1]; 48 mg, Day 7, plasma, healthy volunteers, read-out: AUC0-24 Min, Max): 2970 to 29000 ng·h/mL
- Cmax ([1]; 48 mg, Day 7, plasma, healthy volunteers, read-out: Cmax AM): 1400 ng/mL
- Cmax ([1]; 48 mg, Day 7, plasma, healthy volunteers, read-out: Cmax GM): 1240 ng/mL
- Cmax ([1]; 48 mg, Day 7, plasma, healthy volunteers, read-out: Cmax Median): 1340 ng/mL
- Cmax ([1]; 48 mg, Day 7, plasma, healthy volunteers, read-out: Cmax Min, Max): 421 to 2380 ng/mL
- Tmax ([1]; 48 mg, Day 7, plasma, healthy volunteers, read-out: Tmax Median): 4 h
- Tmax ([1]; 48 mg, Day 7, plasma, healthy volunteers, read-out: Tmax Min, Max): 1.5 to 12 h
- Cmax ([1]; 192 mg, Day 1, plasma, Healthy Subjects, Table 10, read-out: Cmax Mean): 3780 ng/mL
- Tmax ([1]; 192 mg, Day 1, plasma, Healthy Subjects, Table 10, read-out: Tmax median): 3.5 h
- AUC(0-t) ([1]; 192 mg, Day 1, plasma, Healthy Subjects, read-out: AUC0-24 Mean): 34500 ng·h/mL
- AUC(0-t) ([1]; 192 mg, Day 1, plasma, healthy volunteers, read-out: AUC0-24 AM): 34500 ng·h/mL
- AUC(0-t) ([1]; 192 mg, Day 1, plasma, healthy volunteers, read-out: AUC0-24 GM): 33400 ng·h/mL
- AUC(0-t) ([1]; 192 mg, Day 1, plasma, healthy volunteers, read-out: AUC0-24 Median): 34700 ng·h/mL
